Data from patent US20230407243A1, “GENETIC PLATFORM TO INVESTIGATE THE FUNCTIONS OF BACTERIAL DRUG EFFLUX PUMPS” (priority 2022, published 2023).
“And” between values parts separate entries of the source, which are not always exact repeats. Equal values may be shown once. Read-outs that look alike come from different tables or passages of the source.

What was measured:
Format in all cases: cell-based, Escherichia coli
ΔtolC = conditions: ΔtolC
Protocol: (§1) Synergy measurement using checkerboard analysis was performed in 96-well microtiter plates using the microdilution broth method, according to CLSI guidelines (Patel J. B., 2015). The cell inocula were prepared using the colony resuspension method. The minimum inhibitory concentrations (MICs) were defined as the lowest concentration that provided no growth, as determined by measurement of the OD600nm using a Synergy H1 microplate reader (BioTek). Susceptibility testing was performed in MHB II with a final volume of 100 μL. PAI3N (Bachem Americas) was solubilized in MHB II. […] Solvent controls were included in each plate.
(§2) The Fractional Inhibitory Concentration Index (FICI) was used to assess the synergy of PAI3N in combination with different antibiotics. The FICI represents the ΣFIC of each drug. The FICI for each drug was calculated using the following formula: FICI=FICA+FICB=(CA/MICA)+(CB/MICB). Where MICA and MICB are the MICs of drugs A (PAI3N/NMP) and B (antibiotic) alone, and CA and CB are the MICs of the drugs in combination. The effects of PAβN or NMP in combination with antibiotics were classified as: synergistic (FICI<0.5), additive (FICI>0.5-1.0), indifferent (FICI>1.0-2.0), and antagonistic (FICI>2.0). Fold increases in resistance provided by efflux pumps were calculated by dividing the MIC values of strains expressing efflux pumps by the MIC value of EKO-35.

EKO-35 = test system: EKO-35
Protocol: as §1, §2

EKO-35 acrBD408A = conditions: EKO-35 acrBD408A
Protocol: as §1, §2

ΔtolC-Pore = test system: ΔtolC-Pore
Protocol: as §1, §2

wild-type E. coli K-12 = conditions: K-12
Protocol: as §1, §2

EKO-35-Pore = assay: Checkerboard synergy (FICI), porinated strain; conditions: EKO-35 Pore; with Ethidium Bromide
Protocol: as §1, §2

[1] = test system: EKO-35 porinated strain expressing acrB; assay: Checkerboard synergy (FICI), porinated strain; conditions: EKO-35 acrB Pore
Protocol: as §1, §2

[2] = test system: EKO-35-Pore strains producing other efflux pumps; assay: Checkerboard synergy (FICI), porinated strain; conditions: EKO-35 mdtEF Pore; NMP alone, one value per checkerboard
Protocol: as §1, §2

[3] = test system: EKO-35 porinated strain expressing acrD; assay: Checkerboard synergy (FICI), porinated strain; conditions: EKO-35 acrD Pore; NMP alone, one value per checkerboard
Protocol: as §1, §2

wild-type K-12-Pore = assay: Checkerboard synergy (FICI), porinated strain; conditions: K-12 Pore
Protocol: as §1, §2

[4] = test system: EKO-35-Pore expressing the P. aeruginosa pump mexCD; assay: Checkerboard synergy (FICI), porinated strain; conditions: EKO-35 mexCD Pore; with Erythromycin
Protocol: as §1, §2

[5] = test system: EKO-35 porinated strain expressing acrF (AcrEF); assay: Checkerboard synergy (FICI), porinated strain; conditions: EKO-35 acrEF Pore; with Fusidic Acid
Protocol: as §1, §2

[6] = test system: EKO-35-Pore acrBD408A (functionally inactive AcrB variant); assay: Checkerboard synergy (FICI), porinated strain; conditions: EKO-35 acrBD408A Pore; with Ciprofloxacin
Protocol: as §1, §2

[7] = test system: EKO-35 strains producing different efflux pumps (EKO-35 araC::X); assay: Checkerboard synergy (FICI) of PAβN or NMP with antibiotics
Protocol: as §1, §2

SMILES: c1ccc2c(CN3CCNCC3)cccc2c1 [NMP, 1-(1-naphthylmethyl)-piperazine]
- NMP MICa Combined (ΔtolC; with Ciprofloxacin): 512 µg/mL
- NMP MICa Combined (ΔtolC; with Erythromycin): 128 µg/mL
- NMP MICa Combined (ΔtolC; with Ethidium Bromide): 32 µg/mL
- NMP MICa Combined (ΔtolC; with Fusidic Acid): 256 µg/mL
- NMP MICa Combined (ΔtolC; with Linezolid): 512 µg/mL
- NMP MICa Combined (ΔtolC; with Oxacillin): 8 µg/mL
- NMP MICa Alone (EKO-35; EKO-35, NMP alone, one value per checkerboard): 512 µg/mL and 1024 µg/mL
- NMP MICa Combined (EKO-35; EKO-35, with Ciprofloxacin): 512 µg/mL
- NMP MICa Combined (EKO-35; EKO-35, with Erythromycin): 256 µg/mL
- NMP MICa Combined (EKO-35; EKO-35, with Ethidium Bromide): 512 µg/mL
- NMP MICa Combined (EKO-35; EKO-35, with Fusidic Acid): 256 µg/mL
- NMP MICa Combined (EKO-35; EKO-35, with Linezolid): 16 µg/mL
- NMP MICa Combined (EKO-35; EKO-35, with Oxacillin): 256 µg/mL
- susceptibility to the efflux pump inhibitor alone, efflux-deficient strains vs wild-type (EKO-35; efflux-deficient strains EKO-35, EKO-35 acrBD408A, ΔtolC): comparable to the wild-type strain
- NMP MICa Combined (EKO-35 acrBD408A; with Ciprofloxacin): 64 µg/mL
- NMP MICa Combined (EKO-35 acrBD408A; with Linezolid): 8 µg/mL
- NMP MICa Combined (EKO-35 acrBD408A; with Oxacillin): 1024 µg/mL
- NMP MICa Alone (ΔtolC-Pore; ΔtolC Pore, NMP alone, one value per checkerboard): 512 µg/mL
- NMP MICa Combined (ΔtolC-Pore; ΔtolC Pore, with Erythromycin): 256 µg/mL
- NMP MICa Combined (ΔtolC-Pore; ΔtolC Pore, with Ethidium Bromide): 128 µg/mL
- NMP MICa Combined (ΔtolC-Pore; ΔtolC Pore, with Linezolid): 256 µg/mL
- NMP MICa Combined (ΔtolC-Pore; δtolC Pore, with Ciprofloxacin): 256 µg/mL
- NMP MICa Combined (ΔtolC-Pore; δtolC Pore, with Fusidic Acid): 128 µg/mL
- NMP MICa Combined (ΔtolC-Pore; δtolC Pore, with Oxacillin): 16 µg/mL
- NMP MICa Combined (wild-type E. coli K-12; with Ciprofloxacin): 128 µg/mL
- NMP MICa Combined (wild-type E. coli K-12; with Erythromycin): 128 µg/mL
- NMP MICa Combined (wild-type E. coli K-12; with Ethidium Bromide): 64 µg/mL
- NMP MICa Combined (wild-type E. coli K-12; with Fusidic Acid): 256 µg/mL
- NMP MICa Combined (wild-type E. coli K-12; with Linezolid): 128 µg/mL
- NMP MICa Combined (wild-type E. coli K-12; with Oxacillin): 64 µg/mL
- NMP MICa Combined (EKO-35-Pore): 4 µg/mL
- NMP MICa Combined ([1]; with Ethidium Bromide): 32 µg/mL
- NMP MICa Combined ([1]; with Linezolid): 64 µg/mL
- NMP MICa Alone [2]: 256 µg/mL
- NMP MICa Alone [3]: 256 µg/mL
- NMP MICa Combined (wild-type K-12-Pore; with Linezolid): 64 µg/mL
- NMP MICa Combined (wild-type K-12-Pore; with Oxacillin): 8 µg/mL
- NMP MICa Combined [4]: 64 µg/mL
- NMP MICa Combined [5]: 64 µg/mL
- NMP MICa Combined [6]: 4 µg/mL
- NMP MICa Combined ([7]; EKO-35 acrB, with Erythromycin): 8 µg/mL
- NMP MICa Combined ([7]; EKO-35 acrB, with Linezolid): 64 µg/mL
- NMP MICa Combined ([7]; EKO-35 acrEF, with Ciprofloxacin): 64 µg/mL
- NMP MICa Combined ([7]; EKO-35 acrEF, with Oxacillin): 64 µg/mL
- NMP MICa Combined ([7]; EKO-35 mdtEF, with Erythromycin): 64 µg/mL
- NMP MICa Combined ([7]; EKO-35 mexCD, with Erythromycin): 16 µg/mL
